“Also recorded” adds a separate entry of the source.
Test system: UBE3A-deficient iOPCs
Test: Ki67 (and PCNA) immunoblotting in UBE3A-knockdown iOPCs: compound screen and rescue of proliferation
Format: cell-based, human
Conditions: for EC50: Homo sapiens, iOPCs treated with siUBE3A, Ki67 immunoblotting normalized to siNC plus vehicle, read-out: EC50 for rescue of Ki67 expression; for Ki67 expression (FIG. 19G) / PCNA expression (FIG. 19G): siUBE3A cells, normalized to GAPDH
Description: Given the scarcity of knowledge regarding UBE3A function in oligodendrocyte biology, a comprehensive exploration of various cellular functions was performed, leveraging the high-throughput capabilities of the iPSC-based methodology (e.g., as described herein). We selected over 45 compounds with known targeted cellular actions (Table 1). These were chosen based on their documented effects on UBE3A, their ability to promote oligodendrocyte development and myelination, or their protective 10 roles in neural tissue. UBE3A expression was modulated using siRNA, achieving a controlled reduction that decreased OPC proliferation by approximately 50%, as evidenced by Ki67 protein levels.
iPSC Culturing and Generation of Induced Human Brain Cells Including Oligodendroglia, Neurons (IN), Astrocytes (iAs) and Microglia (iMG) The generation of iPSC-derived human oligodendrocyte precursor cells (iOPCs) was carried out according to a previously published protocol by Vulakh and Yang et al., 2023 (Characterizing the Neuron-Glial Interactions by the Co-cultures of Human iPSC-Derived Oligodendroglia and Neurons. Methods Mol. Biol. 2683), which itself was a modification of an earlier protocol by Assetta et al., 2020 (Generation of Human Neurons and Oligodendrocytes from Pluripotent Stem Cells for Modeling Neuron-Oligodendrocyte Interactions. J Vis Exp.). The process began with the control iPSCs, which is a well-characterized control reference line acquired from the NIH-funded iPSC Neurodegenerative Disease Initiative (INDI, (Ramos, D. M., Skarnes, W. C., Singleton, A. B., Cookson, M. R., and Ward, M. E. (2021). Tackling neurodegenerative diseases with genomic engineering: A new stem cell initiative from the NIH. Neuron 109, 1080-1083. 10.1016/j.neuron.2021.03.022)), distributed by the Jackson Laboratory. These iPSCs were maintained in mTeSR plus medium (StemCell Technologies, #05825) and expanded in Stem Flex medium (Fisher Scientific. #A3349401) for the induction of neural progenitor cells (INPC). The iNPCs were derived by treating iPSCs with a commercial SMAD inhibitor medium (StemCell Technologies, #08582) for 7 days (Week 1). Subsequently, NPCs were further induced to become OPCs by a 7-day incubation (Week 2) with a chemically-defined OPC medium: DMEM/F12 medium (Thermo Fisher, #11320033) supplemented by 10 ng/ml PDGF-AA (R&D Systems, #221-AA-025), 1 μM SAG (Tocris, #4366), […] N-Acetyl-Cysteine (Millipore Sigma, #A9165-5G), 20 ng/mL bFGF (R&D Systems, #233-FB-025/CF), 1% N2 supplement (Thermo Fisher, #17502048), and 1% B27 supplement (Thermo Fisher, #17504044). […] The additional incubation with OL medium for 7-14 days (Week 4-5) yielded mature, myelinating OLs.
The siRNAs targeting UBE3A (Thermo Fisher, #4390815 and #4390816), estrogen receptors (Thermo Scientific #145909 for ESRβ, #145539 for ESRα, and #4390824 for GPER), and negative control (Thermo Scientific, #AM4615) were obtained commercially. The 10-20 nM final concentration was used with Lipofectamine RNAiMAX transfection reagent (Thermo Scientific #13778075) and incubated for at least 48 hours before the treatments of therapeutic compounds or other reagents.
Cells were collected by fast spin down in centrifuge tubes before lysis in RIPA buffer (ThermoFisher, #89901) supplemented with proteinase inhibitor cocktail (Sigma-Aldrich, #5892791001) on ice. Lysates were then spun down at 15000 rpm for 10 mins, the supernatant was collected and mixed with 4× Laemmle sample buffer (Bio-Rad, #1610747) and cooked 10 mins before SDS-PAGE and transferred with Bio-Rad fast transfer system, the membranes were blocked for one hour in 1× Tris Buffered Saline (TBS) with 1% Casein buffer (Bio-Rad, #1610782) and incubated with primary antibodies overnight at 4 degrees. […]

## Oc1ccc(C2(c3ccccc3F)CCC(F)(F)CC2)cc1 [AC-186]
10 μM, 24 hours, Ki67 immunoblotting normalized to siNC=1.0
  restoration of Ki67 expression in compound screen: restored; also recorded: effectively normalized proliferation levels; also recorded: Statistically significant; also recorded: capable of restoring Ki67 expression
24 hours
  EC50: ~16 nM
10 μM, 24 hours
  Ki67 expression (FIG. 19G): increased expression
  PCNA expression (FIG. 19G): increased expression

## N#CC(Cc1ccc(O)cc1)c1ccc(O)cc1 (centres unmarked) [DPN, diarylpropionitrile, reference compound]
ERβ activators of different structural classes
  impact of UBE3A loss on OPC proliferation (FIG. 18F, 19G): similarly mitigated the impact of UBE3A loss on OPC proliferation
24 hours
  EC50: ~19 nM
10 μM, 24 hours
  Ki67 expression (FIG. 19G): increased expression
  PCNA expression (FIG. 19G): increased expression

Source: patent US20250032425A1, “FIRST IN CLASS USE OF ESTROGEN RECEPTOR BETA AGONISTS IN TREATING ANGELMAN SYNDROME AND RELEVANT AUTISM SPECTRUM DISORDERS” (BROWN UNIVERSITY, priority 2023, published 2025)
